Test results published in patent US12503452B2 (Curza Global, LLC, priority 2019, dated 2025).
Counter-ions that a name gives are not always drawn. Like-named read-outs stand apart in the source and are kept apart here.

What was measured:
E. coli (Ec) = assay: Broth microdilution minimum inhibitory concentration (MIC); assay type: cell-based; details: Escherichia coli, read-out: E. coli + bicarb MIC
Protocol: (§1) A certified BSL-2 laboratory was used for testing. Compounds were evaluated using the broth microdilution minimum inhibitory concentration (MIC) and minimum bactericidal concentration (MBC) assays defined by Clinical and Laboratory Standards Institute (CLSI) in the M26-A guideline against S. aureus (Sa), E. coli (Ec), K. pneumoniae (Kp), A. baumannii (Ab), E. faecalis (Ef) and P. aeruginosa (Pa).
(§2) MICs were determined using the Clinical Laboratory and Standards Institute (CLSI) Broth Microdilution Method with slight modification. Clinical and Laboratory Standards Institute (2012). “Methods for dilution antimicrobial susceptibility tests for bacteria that grow aerobically; approved standard, 9th ed. M07-A9. Clinical and Laboratory Standards Institute, Wayne, PA” Serial two-fold dilutions of compounds are prepared in sterile clear round-bottom 96-well plates.
(§3) To prepare microdilution trays, two-fold dilutions of antimicrobial agent are prepared in growth medium: Cation-Adjusted Mueller-Hinton Broth (CAMHB), or CAMHB supplemented with sodium bicarbonate (6.25 or 25 mM final concentration prepared from a 1.0M stock solution) or CAMHB supplemented with heat inactivated human serum (Fisher Cat. #BP2657100) 0-50% by adding 200 μL of the highest concentration to be tested (64 μg/mL, for example) in row A, mixing and transferring 100 μL from row A to 100 μL growth medium in row B, then repeating the mixing and transferring through row H of the 96-well plate, discarding the excess 100 μL remaining. This slight modification to the CLSI protocol enables evaluation of MICs for 3 compounds per plate in triplicate, albeit with only 8 compound dilutions (CLSI protocol enables 2 compounds in triplicate with 10 dilutions). Bacterial suspensions are added to a final concentration of 5×10^4 CFU/well by adding 5 μL of a 1:10 dilution of a 0.5 McFarland suspension (1×10^8 CFU/mL) for each bacterium evaluated. Bacterial suspensions were prepared using the growth method described by CLSI. Well-isolated colonies (3-5 from an agar plate) were selected using a sterile loop and used to inoculate a tube containing 4 mL of CAMHB. The cultures are incubated at 35±2° C. until it achieves or exceeds the turbidity of the 0.5 McFarland standard, determined by measuring A600nm (usually two to six hours). When growth exceeds a 0.5 McFarland standard, the turbidity is adjusted with broth to be equivalent to a 0.5 McFarland standard.

P. aeruginosa (Pa) = assay: as above; assay type: cell-based; details: Pseudomonas aeruginosa, P. aeruginosa; growth medium supplemented with sodium bicarbonate; read-out: Pa MIC + bicarb
Protocol: as §1, §2, §3

[1] = test system: E. coli S30 extract (bacterial protein synthesis); assay: E. coli S30 extract coupled transcription-translation luciferase assay (inhibition of bacterial protein synthesis); assay type: biochemical; details: read-out: S30 IC50 (μM/% inhib.)
Protocol: E. coli S30 extract: Inhibition of bacterial protein synthesis was determined using the E. coli S30 Extract System for Circular DNA (Promega catalog #L-2010) and Luciferase Assay Reagent (Promega catalog #E1500) with slight modifications to a published protocol. Fyfe, C., Sutcliffe, J. A. and Grossman, T. H. (2012) “Development and characterization of a Pseudomonas aeruginosa in vitro coupled transcription-translation assay system for evaluation of translation inhibitors” J. Microbiol. Methods 90(3), 256-261.
Compounds were serial diluted in 0.5 mL microcentrifuge tubes by mixing and transferring 50 μL from the highest concentration to 50 μL of water, mixing and transferring 50 μL of this 2-fold dilution to 50 μL of water. This mixing and transferring was repeated so that there are a total of 8 tubes with serial dilutions of compound at 10× the desired screening concentration that are ultimately diluted to 1× by the addition of S30 luciferase synthesis mixture. Serial dilutions of compounds were added (2 μL) to wells in a black round bottom 96-well plate. Water (2 μL) was used as a “no inhibitor” control in 4 wells/plate. No DNA control reaction mixture (20 μL; see below) was used as a control in 4 wells/plate for background luminescence. S30 luciferase synthesis mixture (18 μL; see below) was added to wells with compounds or water mixture and incubated at 37° C. for 1 hour. Reactions were stopped by transferring to 4° C. refrigerator for 5 minutes then 25 μL of luciferase activity mix was added. Luminescence was measured using a BioTek Synergy HTX plate reader. % Inhibition was determined relative to no inhibitor controls.
S30 luciferase synthesis mixture:
• 445 μL S30 extract, circular • 712 μL S30 Premix without amino acids • 4.45 μL pBESTluc™ DNA (1 μg/μL) • 78 μL complete amino acid mixture • 267 μL water No DNA control: • 20 μL S30 extract, circular • 32 μL S30 Premix without amino acids • 7 μL complete amino acid mixture • 21 μL water Rabbit Reticulocyte lysate

[2] = biological target: Rabbit Reticulocyte Lysate (eukaryotic protein synthesis); assay: Rabbit reticulocyte lysate luciferase assay (inhibition of eukaryotic protein synthesis); assay type: biochemical; details: read-out: Rabbit reticulocyte IC50 (μM/% inhib.)
Protocol: Inhibition of eukaryotic protein synthesis was determined using the Rabbit Reticulocyte Lysate System, Nuclease-Treated from Promega (catalog #L-4960) with slight modifications to the manufacturer's protocol. Compounds were serial diluted in 0.5 mL microcentrifuge tubes by mixing and transferring 50 μL from the highest concentration to 50 μL of water, mixing and transferring 50 μL of this 2-fold dilution to 50 μL of water. This mixing and transferring was repeated so that there are a total of 8 tubes with serial dilutions of compound at 10× the desired screening concentration that are ultimately diluted to 1× by the addition of rabbit reticulocyte luciferase synthesis mixture. Serial dilutions of compounds were added ([…]) to wells in a black round bottom 96-well plate. Water (2.5 μL) was used as a “no inhibitor” control in 4 wells/plate. No RNA control reaction mixture ([…]; see below) was used as a control in 4 wells/plate for background luminescence. Rabbit reticulocyte luciferase synthesis mixture (22.5 μL; see below) was added to wells with compounds or water mixture and incubated at 30° C. for 90 minutes. Luciferase assay reagent (25 μL) was added with luminescence measured using a BioTek Synergy HTX plate reader. % Inhibition was determined relative to no inhibitor controls.
Rabbit reticulocyte luciferase synthesis mixture:
• 1,000 μL rabbit reticulocyte lysate • 5.7 μL Luciferase Control RNA (1 μg/μL) • 26 μL complete amino acid mixture • 395 μL water No RNA Control • 70 μL rabbit reticulocyte lysate • 2 μL complete amino acid mixture • 28 μL water Minimum Inhibitory Concentration (MIC)

A. baumannii (Ab) = assay: Broth microdilution minimum inhibitory concentration (MIC); assay type: cell-based; details: Acinetobacter baumannii; A. baumannii; growth medium supplemented with sodium bicarbonate; read-out: Ab + bicarb MIC
Protocol: as §1, §2, §3

[3] = E. coli, growth medium supplemented with sodium bicarbonate
[4] = class by IC50 or % inhibition @ 1 μM
[5] = E. coli, growth medium with sodium bicarbonate

Row | Compound | IC50 [1, 4] | IC50 [2, 4] | MIC (E. coli (Ec); [5]) | other results
1 | CC(C)(N)C(=O)N1CCN(C(=O)Nc2ccn(-c3cccc(CCN4CCC(N)CC4)c3)c(=O)n2)CC1 [Compound 2] | < 0.5 µM | > 1 µM | – | MIC (E. coli (Ec); [3]): 8 to 32 µg/mL; MIC (P. aeruginosa (Pa)): > 32 µg/mL
2 | C[C@H]1CN(C(=O)C(C)(C)N)CCN1C(=O)Nc1ccn(-c2ccc(CN3CCC(N)CC3)cc2)c(=O)n1 [Compound 56] | < 0.5 µM | > 1 µM | – | MIC (E. coli (Ec); [3]): < 8 µg/mL; MIC (P. aeruginosa (Pa)): > 32 µg/mL
3 | CC(C)(N)C(=O)N1CCN(C(=O)Nc2ccn(-c3ccc(CN4CCC(N)CC4)cc3)c(=O)c2)[C@H](C(=O)O)C1 [Compound 64] | < 0.5 µM | > 1 µM | – | MIC (E. coli (Ec); [3]): > 32 µg/mL; MIC (P. aeruginosa (Pa)): > 32 µg/mL
4 | C[C@@H]1CN(C(=O)Nc2ccn(-c3ccc(CN4CCC(CN)CC4)cc3)c(=O)n2)CCN1C(=O)C(C)(C)N [Compound 65] | < 0.5 µM | > 1 µM | – | MIC (E. coli (Ec); [3]): < 8 µg/mL; MIC (P. aeruginosa (Pa)): > 32 µg/mL
5 | CC(C)(N)C(=O)N1CCN(C(=O)Nc2ccn(-c3ccc(CN4CCC(N)CC4)c(Cl)c3)c(=O)n2)CC1 [Compound 99] | < 0.5 µM | > 1 µM | – | MIC (E. coli (Ec); [3]): < 8 µg/mL; MIC (P. aeruginosa (Pa)): > 32 µg/mL
6 | C[C@](N)(CO)C(=O)N1CCN(C(=O)Nc2ccn(-c3cc(CN4CCC(N)CC4)cc(OC(F)(F)F)c3)c(=O)n2)CC1 [Compound 103] | > 1 µM | > 1 µM | – | MIC (A. baumannii (Ab)): > 32 µg/mL; MIC (E. coli (Ec); [3]): > 32 µg/mL
7 | C[C@@H](N)C1CCN(Cc2ccc(-n3ccc(NC(=O)N4CCN(C(=O)[C@@](C)(N)CO)CC4)nc3=O)cc2)CC1 [Compound 222] | < 0.5 µM | > 1 µM | < 8 µg/mL | –
8 | CC(C)(N)CN1CCN(Cc2ccc(-n3ccc(NC(=O)N4CCN(C(=O)C(C)(C)N)CC4)nc3=O)cc2)CC1 [Compound 226] | < 0.5 µM | > 1 µM | < 8 µg/mL | –
9 | CC(C)(N)N1CCN(C(=O)Nc2ccn(-c3ccc(CN4CCC(N)CC4)cc3)c(=O)n2)CC1 [Compound 230] | > 1 µM | > 1 µM | 8 to 32 µg/mL | –
10 | Cc1cn(-c2ccc(CN3CCC(N)CC3)cc2)c(=O)nc1NC(=O)N1CCN(C(=O)C(C)(C)N)CC1 [Compound 234] | > 1 µM | > 1 µM | > 32 µg/mL | –
11 | CC(C)(N)C(=O)N1CCN(C(=O)Nc2ccn(-c3ccc(CN4CCC[C@@H](N)C4)cc3)c(=O)n2)CC1 [Compound 236] | > 1 µM | > 1 µM | < 8 µg/mL | –
12 | CC(C)(N)C(=O)N1CCN(C(=O)Nc2ccn(-c3ccc(CN4CCC[C@H](N)C4)cc3)c(=O)n2)CC1 [Compound 237] | 0.5 to 1 µM | > 1 µM | < 8 µg/mL | –
13 | CC1(N)CN(Cc2ccc(-n3ccc(NC(=O)N4CCN(C(=O)C(C)(C)N)CC4)nc3=O)cc2)C1 [Compound 238] | > 1 µM | > 1 µM | < 8 µg/mL | –
14 | CC(C)(N)C(=O)N1CCN(C(=O)Nc2ccn(-c3ccc(CN4CC[C@@H](N)C4)cc3)c(=O)n2)CC1 [Compound 239] | < 0.5 µM | > 1 µM | < 8 µg/mL | –
15 | CC(C)(N)C(=O)N1CCN(C(=O)Nc2ccn(-c3ccc(CN4CCCCC(N)C4)cc3)c(=O)n2)CC1 (stereo not drawn) [Compound 240] | 0.5 to 1 µM | > 1 µM | > 32 µg/mL | –
16 | CC(C)(N)C(=O)N1CCN(C(=O)Nc2ccn(-c3ccc(CN4CC[C@H](N)C4)cc3)c(=O)n2)CC1 [Compound 241] | < 0.5 µM | > 1 µM | 8 to 32 µg/mL | –
17 | CC(C)(N)C(=O)N1CCN(C(=O)Nc2ccn(-c3ccc(CN4CC(N)C4)cc3)c(=O)n2)CC1 [Compound 244] | > 1 µM | > 1 µM | < 8 µg/mL | –
18 | CC1(N)CCCN(Cc2ccc(-n3ccc(NC(=O)N4CCN(C(=O)C(C)(C)N)CC4)nc3=O)cc2)C1 (stereo not drawn) [Compound 246] | > 1 µM | > 1 µM | < 8 µg/mL | –
19 | CC(C)(N)C(=O)N1CCN(C(=O)Nc2ccn(-c3ccc(CN4CCC(F)(CN)CC4)cc3)c(=O)n2)CC1 [Compound 248] | < 0.5 µM | > 1 µM | < 8 µg/mL | –
20 | CNC1CCN(Cc2ccc(-n3ccc(NC(=O)N4CCN(C(=O)C(C)(C)N)CC4)nc3=O)cc2)CC1 [Compound 250] | < 0.5 µM | > 1 µM | < 8 µg/mL | –
21 | CC1CC(N)CCN1Cc1ccc(-n2ccc(NC(=O)N3CCN(C(=O)C(C)(C)N)CC3)nc2=O)cc1 (stereo not drawn) [Compound 252] | < 0.5 µM | > 1 µM | < 8 µg/mL | –
22 | CC(C)(N)C(=O)N1CCN(C(=O)Nc2ccn(-c3ccc(CN4CCC(C(C)(C)N)CC4)cc3)c(=O)n2)CC1 [Compound 253] | < 0.5 µM | > 1 µM | < 8 µg/mL | –
23 | CC1(N)CCCN(Cc2ccc(-n3ccc(NC(=O)N4CCN(C(=O)C(C)(C)N)CC4)nc3=O)cc2)CC1.Cl (stereo not drawn) [Compound 255] | < 0.5 µM | > 1 µM | < 8 µg/mL | –
24 | CC(C)(N)C(=O)N1CCN(C(=O)Nc2ccn(-c3ccc(CN4CC[C@@H](N)C(O)C4)cc3)c(=O)n2)CC1 (stereo partly drawn) [Compound 267] | < 0.5 µM | > 1 µM | < 8 µg/mL | –
25 | CC(Cc1ccc(-n2ccc(NC(=O)N3CCN(C(=O)C(C)(C)N)CC3)nc2=O)cc1)NCC1CNC1 (stereo not drawn) [Compound 346, hydrochloride salt] | – | > 1 µM | – | MIC (E. coli (Ec)): > 32 µg/mL; IC50 ([1]; class by IC50 or % inhibition @ 1 μM, hydrochloride salt): 0.5 to 1 µM
26 | C[C@](N)(CO)C(=O)N1CCN(C(=O)Nc2ccn(-c3ccc(CCN4CCCC(N)CC4)cc3)c(=O)n2)CC1 (stereo partly drawn) [Compound 381] | – | – | < 8 µg/mL | IC50 ([1]; % inhibition @ 1 μM): < 0.5 µM; IC50 ([2]; % inhibition @ 1 μM): > 1 µM
